Measurements from ChEMBL document CHEMBL1201862, “PubChem BioAssay data set” (2004).
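48-hour exposure; five concentrations; linearly interpolated endpoints. GI50 marks 50% less growth.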 Calls of active or inactive are those of the source. Cut-off read from the data, not from the text of the source: active = GI50 up to about 1.1 µM and inactive = higher.

Columns and labels:
Assay in all cases: growth of human tumour cells (NCI), 48 h
A498 = test system: A498
A549 = test system: A549
ACHN = test system: ACHN
CAKI-1 = test system: CAKI-1
CCRF-CEM = test system: CCRF-CEM
COLO 205 = test system: COLO 205
DLD-1 = test system: DLD-1
DMS-114 = test system: DMS-114
DMS-273 = test system: DMS-273
EKVX = test system: EKVX
HCC 2998 = test system: HCC 2998
HCT-116 = test system: HCT-116
HCT-15 = test system: HCT-15
HL-60 = test system: HL-60
HOP-62 = test system: HOP-62
HOP-92 = test system: HOP-92
HT-29 = test system: HT-29
IGROV-1 = test system: IGROV-1
K562 = test system: K562
KM-20L2 = test system: KM-20L2
KM12 = test system: KM12
LOX IMVI = test system: LOX IMVI
LXFL 529 = test system: LXFL 529
M14 = test system: M14
M19-MEL = test system: M19-MEL
MOLT-4 = test system: MOLT-4
NCI-H226 = test system: NCI-H226
NCI-H23 = test system: NCI-H23
NCI-H460 = test system: NCI-H460
NCI-H522 = test system: NCI-H522
OVCAR-4 = test system: OVCAR-4
OVCAR-5 = test system: OVCAR-5
OVCAR-8 = test system: OVCAR-8
RPMI-8226 = test system: RPMI-8226
SF-268 = test system: SF-268
SF-295 = test system: SF-295
SF-539 = test system: SF-539
SK-MEL-28 = test system: SK-MEL-28
SK-MEL-2 = test system: SK-MEL-2
SK-MEL-5 = test system: SK-MEL-5
SK-OV-3 = test system: SK-OV-3
SN12C = test system: SN12C
SNB-19 = test system: SNB-19
SNB-75 = test system: SNB-75
SNB-78 = test system: SNB-78
SR = test system: SR
SW-620 = test system: SW-620
TK-10 = test system: TK-10
U-251 = test system: U-251
UACC-257 = test system: UACC-257
UACC-62 = test system: UACC-62
UO-31 = test system: UO-31
XF498 = test system: XF498
786-0 = test system: 786-0
HOP-18 = test system: HOP-18
Malme-3M = test system: Malme-3M
OVCAR-3 = test system: OVCAR-3
RXF 393 = test system: RXF 393

Cc1cccc(NC(=O)C(=O)C(C(=O)c2ccccc2F)C2OC(=O)c3ccccc32)c1Cl (stereo unspecified)
GI50 (A498): 60.7 µM (inactive)
GI50 (A549): 36.4 µM (inactive)
GI50 (ACHN): 53.1 µM (inactive)
GI50 (CAKI-1): 61.4 µM (inactive)
GI50 (CCRF-CEM): 23.3 µM (inactive)
GI50 (COLO 205): 20 µM (inactive)
GI50 (DLD-1): 27.9 µM (inactive)
GI50 (DMS-114): 17.5 µM (inactive)
GI50 (DMS-273): 24.7 µM (inactive)
GI50 (EKVX): 37.9 µM (inactive)
GI50 (HCC 2998): 22.5 µM (inactive)
GI50 (HCT-116): 20.3 µM (inactive)
GI50 (HCT-15): 22.4 µM
GI50 (HL-60): 20.1 µM (inactive)
GI50 (HOP-62): 37.4 µM (inactive)
GI50 (HOP-92): 52.7 µM (inactive)
GI50 (HT-29): 31.5 µM (inactive)
GI50 (IGROV-1): 56.8 µM (inactive)
GI50 (K562): 28.6 µM (inactive)
GI50 (KM-20L2): 29.6 µM (inactive)
GI50 (KM12): 25 µM (inactive)
GI50 (LOX IMVI): 17.7 µM (inactive)
GI50 (LXFL 529): 24.3 µM (inactive)
GI50 (M14): 43.1 µM (inactive)
GI50 (M19-MEL): 22.4 µM (inactive)
GI50 (MOLT-4): 30.3 µM (inactive)
GI50 (NCI-H226): 32.4 µM (inactive)
GI50 (NCI-H23): 24.2 µM (inactive)
GI50 (NCI-H460): 33.7 µM (inactive)
GI50 (NCI-H522): 22.4 µM (inactive)
GI50 (OVCAR-4): 43.9 µM (inactive)
GI50 (OVCAR-5): 60 µM (inactive)
GI50 (OVCAR-8): 20.1 µM (inactive)
GI50 (RPMI-8226): 26.9 µM (inactive)
GI50 (SF-268): 21.4 µM (inactive)
GI50 (SF-295): 36.4 µM (inactive)
GI50 (SF-539): 18.2 µM (inactive)
GI50 (SK-MEL-28): 35.1 µM (inactive)
GI50 (SK-MEL-2): 16.8 µM (inactive)
GI50 (SK-MEL-5): 64 µM (inactive)
GI50 (SK-OV-3): 37.2 µM (inactive)
GI50 (SN12C): 36.7 µM (inactive)
GI50 (SNB-19): 31.1 µM (inactive)
GI50 (SNB-75): 20.5 µM (inactive)
GI50 (SNB-78): 32.6 µM (inactive)
GI50 (SR): 26.5 µM (inactive)
GI50 (SW-620): 42.5 µM (inactive)
GI50 (TK-10): 63 µM (inactive)
GI50 (U-251): 14.5 µM (inactive)
GI50 (UACC-257): 51.4 µM (inactive)
GI50 (UACC-62): 23.2 µM (inactive)
GI50 (UO-31): 37.2 µM (inactive)
GI50 (XF498): 19.7 µM (inactive)

O=C(CSc1nnc(Cc2ccccc2)o1)Nc1ccc(Cl)cc1
GI50 (786-0): > 100 µM (inactive)
GI50 (A498): 46.8 µM (inactive)
GI50 (A549): > 100 µM (inactive)
GI50 (ACHN): 75.9 µM (inactive)
GI50 (CAKI-1): 59.2 µM (inactive)
GI50 (CCRF-CEM): > 100 µM (inactive)
GI50 (COLO 205): > 100 µM (inactive)
GI50 (DLD-1): > 100 µM (inactive)
GI50 (DMS-114): 39.4 µM (inactive)
GI50 (DMS-273): 67.8 µM (inactive)
GI50 (EKVX): 32.7 µM (inactive)
GI50 (HCC 2998): > 100 µM (inactive)
GI50 (HCT-116): > 100 µM (inactive)
GI50 (HCT-15): > 100 µM
GI50 (HL-60): > 100 µM (inactive)
GI50 (HOP-18): > 100 µM (inactive)
GI50 (HOP-62): > 100 µM (inactive)
GI50 (HT-29): 47.4 µM (inactive)
GI50 (IGROV-1): 92 µM (inactive)
GI50 (K562): 87.7 µM (inactive)
GI50 (KM-20L2): 78.5 µM (inactive)
GI50 (KM12): > 100 µM (inactive)
GI50 (LOX IMVI): > 100 µM (inactive)
GI50 (LXFL 529): 86.3 µM (inactive)
GI50 (M14): > 100 µM (inactive)
GI50 (M19-MEL): > 100 µM (inactive)
GI50 (MOLT-4): > 100 µM (inactive)
GI50 (Malme-3M): > 100 µM (inactive)
GI50 (NCI-H226): 86.5 µM (inactive)
GI50 (NCI-H23): 52.2 µM (inactive)
GI50 (NCI-H460): 77.3 µM (inactive)
GI50 (NCI-H522): 75.3 µM (inactive)
GI50 (OVCAR-3): 68.2 µM (inactive)
GI50 (OVCAR-4): 58.7 µM (inactive)
GI50 (OVCAR-5): 70.3 µM (inactive)
GI50 (OVCAR-8): 96.6 µM (inactive)
GI50 (RPMI-8226): > 100 µM (inactive)
GI50 (RXF 393): > 100 µM (inactive)
GI50 (SF-295): 66.8 µM (inactive)
GI50 (SF-539): > 100 µM (inactive)
GI50 (SK-MEL-28): > 100 µM (inactive)
GI50 (SK-MEL-2): 82 µM (inactive)
GI50 (SK-MEL-5): 57.8 µM (inactive)
GI50 (SK-OV-3): > 100 µM (inactive)
GI50 (SN12C): > 100 µM (inactive)
GI50 (SNB-19): > 100 µM (inactive)
GI50 (SNB-75): 67.8 µM (inactive)
GI50 (SNB-78): > 100 µM (inactive)
GI50 (SW-620): > 100 µM (inactive)
GI50 (TK-10): > 100 µM (inactive)
GI50 (U-251): > 100 µM (inactive)
GI50 (UACC-257): > 100 µM (inactive)
GI50 (UACC-62): 41.8 µM (inactive)
GI50 (UO-31): > 100 µM (inactive)

CCOC(=O)c1nc2ccc(Cl)cc2c2c1Cc1ccccc1-2
GI50 (786-0): > 100 µM (inactive)
GI50 (A549): > 100 µM (inactive)
GI50 (ACHN): > 100 µM (inactive)
GI50 (CAKI-1): > 100 µM (inactive)
GI50 (COLO 205): > 100 µM (inactive)
GI50 (DLD-1): > 100 µM (inactive)
GI50 (DMS-273): > 100 µM (inactive)
GI50 (EKVX): > 100 µM (inactive)
GI50 (HCC 2998): > 100 µM (inactive)
GI50 (HCT-116): > 100 µM (inactive)
GI50 (HCT-15): > 100 µM
GI50 (HOP-18): > 100 µM (inactive)
GI50 (HOP-62): > 100 µM (inactive)
GI50 (IGROV-1): > 100 µM (inactive)
GI50 (K562): > 100 µM (inactive)
GI50 (KM-20L2): > 100 µM (inactive)
GI50 (KM12): > 100 µM (inactive)
GI50 (LOX IMVI): > 100 µM (inactive)
GI50 (LXFL 529): > 100 µM (inactive)
GI50 (M14): > 100 µM (inactive)
GI50 (M19-MEL): > 100 µM (inactive)
GI50 (MOLT-4): > 100 µM (inactive)
GI50 (NCI-H226): > 100 µM (inactive)
GI50 (NCI-H23): > 100 µM (inactive)
GI50 (NCI-H522): 90.8 µM (inactive)
GI50 (OVCAR-3): > 100 µM (inactive)
GI50 (OVCAR-4): > 100 µM (inactive)
GI50 (OVCAR-5): > 100 µM (inactive)
GI50 (OVCAR-8): > 100 µM (inactive)
GI50 (RPMI-8226): > 100 µM (inactive)
GI50 (RXF 393): 19.7 µM (inactive)
GI50 (SF-268): > 100 µM (inactive)
GI50 (SF-295): > 100 µM (inactive)
GI50 (SF-539): > 100 µM (inactive)
GI50 (SK-MEL-28): > 100 µM (inactive)
GI50 (SK-MEL-2): > 100 µM (inactive)
GI50 (SK-MEL-5): > 100 µM (inactive)
GI50 (SN12C): > 100 µM (inactive)
GI50 (SNB-19): > 100 µM (inactive)
GI50 (SNB-75): 70 µM (inactive)
GI50 (SNB-78): > 100 µM (inactive)
GI50 (SR): > 100 µM (inactive)
GI50 (SW-620): > 100 µM (inactive)
GI50 (TK-10): > 100 µM (inactive)
GI50 (U-251): > 100 µM (inactive)
GI50 (UACC-257): 75.3 µM (inactive)
GI50 (UACC-62): > 100 µM (inactive)
GI50 (UO-31): > 100 µM (inactive)
GI50 (XF498): > 100 µM (inactive)
